Values after ≈ are worked out from the molar mass of the structure shown.

For the first test, the system named is Staphylococcus aureus. In words: Antibacterial activity against Staphylococcus aureus ATCC 25923 after 24 hrs by two fold serial dilution method. The note with it: ATCC 25923, 24 h. The test is classed as functional.
As for `Cc1nc2ccccc2n1CCn1cnc2c(N3CCOCC3)ncnc21`, inhibition of growth (MIC) required 32 µg/mL (≈ 88.1 µM).

For the compound `CCn1c(Cn2cnc3c(N4CCOCC4)ncnc32)nc2ccccc21`, the MIC – broadly, the smallest concentration in the dilution series that meets the test's criterion for growth inhibition – amounted to 256 µg/mL (≈ 704 µM).

Take `c1nc2nc[nH]c(N3CCCC3)c-2n1`: the MIC was found to be 512 µg/mL (≈ 2710 µM).

The subject of a further test is Pseudomonas aeruginosa. In words: Antibacterial activity against Pseudomonas aeruginosa after 24 hrs by two fold serial dilution method.
Settings: not given
The test is classed as functional.
`Cc1nc2ccccc2n1CCn1cnc2c(N3CCOCC3)ncnc21` returned an MIC of 256 µg/mL (≈ 704 µM).

For `CCn1c(Cn2cnc3c(N4CCOCC4)ncnc32)nc2ccccc21`, 128 µg/mL (≈ 352 µM) was the least that counted as inhibitory (MIC).

`c1nc2nc[nH]c(N3CCCC3)c-2n1` returned an MIC of 256 µg/mL (≈ 1350 µM).

The subject of another test is Staphylococcus aureus. In words: Antibacterial activity against methicillin-resistant Staphylococcus aureus N315 after 24 hrs by two fold serial dilution method. The test is classed as functional. The note with it: N315, 24 h.
With `Cc1nc2ccccc2n1CCn1cnc2c(N3CCOCC3)ncnc21`, the MIC was determined as 512 µg/mL (≈ 1410 µM).

`CCn1c(Cn2cnc3c(N4CCOCC4)ncnc32)nc2ccccc21` gave an MIC of 256 µg/mL (≈ 704 µM).

In turn, `c1nc2nc[nH]c(N3CCCC3)c-2n1` registered an MIC of 512 µg/mL (≈ 2710 µM).

The subject of a further test is Candida albicans. In words: Antifungal activity against Candida albicans ATCC 90023 after 24 hrs by two fold serial dilution method. Type of test: functional. The note with it: ATCC 90023, 24 h.
As to `Cc1nc2ccccc2n1CCn1cnc2c(N3CCOCC3)ncnc21`, the MIC80 – broadly, the lowest concentration that inhibits either 80% of growth or 80% of the strains tested, depending on the study – is 128 µg/mL (≈ 352 µM).

`CCn1c(Cn2cnc3c(N4CCOCC4)ncnc32)nc2ccccc21` came in with an MIC80 of 128 µg/mL (≈ 352 µM).

As to `c1nc2nc[nH]c(N3CCCC3)c-2n1`, the MIC80 was found to be 256 µg/mL (≈ 1350 µM).

The test system of a further test is Candida parapsilosis. In words: Antifungal activity against Candida parapsilosis ATCC 22019 after 24 hrs by two fold serial dilution method. The note with it: ATCC 22019, 24 h. The test is classed as functional.
The compound `Cc1nc2ccccc2n1CCn1cnc2c(N3CCOCC3)ncnc21` displayed an MIC80 of 512 µg/mL (≈ 1410 µM).

`CCn1c(Cn2cnc3c(N4CCOCC4)ncnc32)nc2ccccc21` yielded an MIC80 of 256 µg/mL (≈ 704 µM).

With `c1nc2nc[nH]c(N3CCCC3)c-2n1`, the MIC80 amounted to 512 µg/mL (≈ 2710 µM).

For the next test, the system named is Aspergillus fumigatus. In words: Antifungal activity against Aspergillus fumigatus after 24 hrs by two fold serial dilution method. The test is classed as functional.
Settings: not given
`Cc1nc2ccccc2n1CCn1cnc2c(N3CCOCC3)ncnc21`: the MIC80 was found to be 256 µg/mL (≈ 704 µM).

Compound `CCn1c(Cn2cnc3c(N4CCOCC4)ncnc32)nc2ccccc21` displayed an MIC80 of 256 µg/mL (≈ 704 µM).

Take `c1nc2nc[nH]c(N3CCCC3)c-2n1`: the MIC80 is 64 µg/mL (≈ 338 µM).

In another test the test system is Escherichia coli. In words: Antibacterial activity against Escherichia coli ATCC 25922 after 24 hrs by two fold serial dilution method. Type of test: functional. As to conditions: ATCC 25922, 24 h.
The compound `Cc1nc2ccccc2n1CCn1cnc2c(N3CCOCC3)ncnc21` came in with a minimum inhibitory concentration (MIC) of 256 µg/mL (≈ 704 µM).

Turning to `CCn1c(Cn2cnc3c(N4CCOCC4)ncnc32)nc2ccccc21`, the MIC came out at 128 µg/mL (≈ 352 µM).

As for `c1nc2nc[nH]c(N3CCCC3)c-2n1`, the MIC was 256 µg/mL (≈ 1350 µM).

A further test concerns Escherichia coli. In words: Antibacterial activity against Escherichia coli after 24 hrs by two fold serial dilution method. Type of test: functional.
Settings: not given
With `Cc1nc2ccccc2n1CCn1cnc2c(N3CCOCC3)ncnc21`, the MIC worked out at 512 µg/mL (≈ 1410 µM).

As to `CCn1c(Cn2cnc3c(N4CCOCC4)ncnc32)nc2ccccc21`, the MIC worked out at 128 µg/mL (≈ 352 µM).

Compound `c1nc2nc[nH]c(N3CCCC3)c-2n1` gave an MIC of 256 µg/mL (≈ 1350 µM).

The next test has as its system Staphylococcus aureus. In words: Antibacterial activity against Staphylococcus aureus after 24 hrs by two fold serial dilution method. Type of test: functional.
Settings: not given
`Cc1nc2ccccc2n1CCn1cnc2c(N3CCOCC3)ncnc21`: the MIC is 256 µg/mL (≈ 704 µM).

In the case of `CCn1c(Cn2cnc3c(N4CCOCC4)ncnc32)nc2ccccc21`, the MIC came out at 256 µg/mL (≈ 704 µM).

`c1nc2nc[nH]c(N3CCCC3)c-2n1` gave an MIC of 64 µg/mL (≈ 338 µM).

The next test has as its system Pseudomonas aeruginosa. In words: Antibacterial activity against Pseudomonas aeruginosa ATCC 27853 after 24 hrs by two fold serial dilution method. Type of test: functional. As to conditions: ATCC 27853, 24 h.
`Cc1nc2ccccc2n1CCn1cnc2c(N3CCOCC3)ncnc21`: the MIC is 256 µg/mL (≈ 704 µM).

The compound `CCn1c(Cn2cnc3c(N4CCOCC4)ncnc32)nc2ccccc21` gave a minimal inhibitory concentration (MIC) of 256 µg/mL (≈ 704 µM).

On to `c1nc2nc[nH]c(N3CCCC3)c-2n1`, for which the minimum inhibitory concentration (MIC) came out at 128 µg/mL (≈ 676 µM).

The subject of another test is Staphylococcus aureus. In words: Antibacterial activity against Staphylococcus aureus ATCC 29213 after 24 hrs by two fold serial dilution method. Type of test: functional. As to conditions: ATCC 29213, 24 h.
On to `Cc1nc2ccccc2n1CCn1cnc2c(N3CCOCC3)ncnc21`, for which the MIC stood at 128 µg/mL (≈ 352 µM).

Turning to `CCn1c(Cn2cnc3c(N4CCOCC4)ncnc32)nc2ccccc21`, the MIC is 256 µg/mL (≈ 704 µM).

`c1nc2nc[nH]c(N3CCCC3)c-2n1` returned a minimal inhibitory concentration (MIC) of 512 µg/mL (≈ 2710 µM).

Another test relates to Klebsiella pneumoniae. In words: Antibacterial activity against Klebsiella pneumoniae after 24 hrs by two fold serial dilution method. Type of test: functional.
Settings: not given
For the compound `Cc1nc2ccccc2n1CCn1cnc2c(N3CCOCC3)ncnc21`, 256 µg/mL (≈ 704 µM) was the least that counted as inhibitory (MIC).

`CCn1c(Cn2cnc3c(N4CCOCC4)ncnc32)nc2ccccc21` had an MIC of 256 µg/mL (≈ 704 µM).

For the compound `c1nc2nc[nH]c(N3CCCC3)c-2n1`, inhibition of growth (MIC) required 512 µg/mL (≈ 2710 µM).

The test system of the next test is Enterococcus faecalis. In words: Antibacterial activity against Enterococcus faecalis after 24 hrs by two fold serial dilution method. The test is classed as functional.
Settings: not given
As to `Cc1nc2ccccc2n1CCn1cnc2c(N3CCOCC3)ncnc21`, the lowest concentration to inhibit growth (MIC) was 256 µg/mL (≈ 704 µM).

Compound `CCn1c(Cn2cnc3c(N4CCOCC4)ncnc32)nc2ccccc21` returned an MIC of 128 µg/mL (≈ 352 µM).

Compound `c1nc2nc[nH]c(N3CCCC3)c-2n1` showed an MIC of 512 µg/mL (≈ 2710 µM).

For a further test, the system named is Candida tropicalis. In words: Antifungal activity against Candida tropicalis after 24 hrs by two fold serial dilution method. Type of test: functional.
Settings: not given
`Cc1nc2ccccc2n1CCn1cnc2c(N3CCOCC3)ncnc21` displayed an MIC80 of 256 µg/mL (≈ 704 µM).

On to `CCn1c(Cn2cnc3c(N4CCOCC4)ncnc32)nc2ccccc21`, for which the MIC80 worked out at 256 µg/mL (≈ 704 µM).

For `c1nc2nc[nH]c(N3CCCC3)c-2n1`, the MIC80 came to 128 µg/mL (≈ 676 µM).

A further test relates to Candida albicans. In words: Antifungal activity against Candida albicans after 24 hrs by two fold serial dilution method. Type of test: functional.
Settings: not given
In turn, `Cc1nc2ccccc2n1CCn1cnc2c(N3CCOCC3)ncnc21` yielded an MIC80 of 128 µg/mL (≈ 352 µM).

`CCn1c(Cn2cnc3c(N4CCOCC4)ncnc32)nc2ccccc21` came in with an MIC80 of 256 µg/mL (≈ 704 µM).

Consider `c1nc2nc[nH]c(N3CCCC3)c-2n1`, for which the MIC80 came out at 128 µg/mL (≈ 676 µM).

Another test relates to Acinetobacter baumannii. In words: Antibacterial activity against Acinetobacter baumannii after 24 hrs by two fold serial dilution method.
Settings: not given
The test is classed as functional.
Consider `Cc1nc2ccccc2n1CCn1cnc2c(N3CCOCC3)ncnc21`, for which inhibition of growth (MIC) required 256 µg/mL (≈ 704 µM).

With `CCn1c(Cn2cnc3c(N4CCOCC4)ncnc32)nc2ccccc21`, the minimal inhibitory concentration (MIC) was found to be 256 µg/mL (≈ 704 µM).

As for `c1nc2nc[nH]c(N3CCCC3)c-2n1`, 256 µg/mL (≈ 1350 µM) was the least that counted as inhibitory (MIC).
